# Where “and” joins values, the source holds several entries; their conditions need not be identical. Equal entries are not always repeated. Entries after “also recorded” stand apart in the source; their conditions may differ.
# Experiments:
# [1] = test system: spleen lymphocytes; assay: Lymphocyte stimulation assay after in vivo treatment, C57BL/6 mice; conditions: for effect on mitogen response (in words): PHA and Con-A
# Method: The purpose of this assay is to challenge lymphocytes in microcultures with one or more polyclonal mitogens at concentrations that will induce mitogenesis within 72 hours of stimulation.
# In the mouse model, spleens are removed from different strains of mice and the spleen cells are teased free and suspended in RPMI-1640 tissue culture medium at a concentration of usually […]. These cells are dispensed at a concentration of 5.0×10^5 cells per microculture well in a 96 well flat bottom 96 well tissue culture plate. All testing of the compounds of this invention or mitogens are done in replicates of 10. The cells are then treated with PHA, Con-A, specific antigens, or buffer only. If in vitro testing is done, varying concentrations of the compounds of this invention or buffer only are added to the cells as well. After treatment with the mitogens and/or compounds of this invention, the cells are incubated for 72 hours. The response of these cells to mitogens and/or the compounds of this invention is assessed using ^14 C-thymidine labeling on the fourth day at a concentration of 0.01 μCi/well. The labeled cells are harvested using a lymphocyte harvestor and placed onto fibrous paper discs. A scintillation cocktail is added to vials containing the discs and the results are obtained using a LKB-liquid scintillation counter (Model 1216/Rackbeta II). The data is expressed as a ratio of the cpm of the mitogen stimulated group to the control (nonmitogen) treated group=lymphocyte stimulation index (LSI).
# The lymphocyte stimulation assay may be performed directly on spleen cells obtained from various strains of mice not treated with the compounds of this invention or on lymphocytes obtained from human […]. […] Alternatively, the mice may be treated in vivo with the compounds of this invention by intraperitoneal multi-dose schedules, followed by sacrifice and harvesting spleen lymphocytes. These cells are then tested for their response to polyclonal mitogens or specific antigens used to immunize the mice. In this system however, no additional compound is added to the in vitro lymphocyte stimulation assay system.
# Two strains of mice, C57BL/6 and BDF1 are treated for seven days with i.p. administration of either 25, 50, 100, 200, or 400 mg/kg of Cpd. 1 or just buffer. This is followed on the eighth day by a lymphocyte stimulation assay.
# A comparison is made of the lymphocyte response of C57BL/6 mice treated 4 days with i.p. administration of either 50, 100, 200, 400 or 800 mg/kg of Cpd. 1, 50, 100, 200, 400 or 800 mg/kg of ascorbic acid (AA), or just buffer. This is followed on the fifth day by a lymphocyte stimulation assay.
# Two strains of mice, C57BL/6 and BALB/c, are treated 4 days with i.p. administration of either 50, 100, 200, or 400 mg/kg of Cpd. 1, or just buffer. This is followed on the fifth day by a lymphocyte stimulation assay.
# C57BL/6 mice were treated with four daily i.p. doses of either 50, 100, 200, or 400 mg/kg of Cpd. 1 or just buffer. On the fifth day a lymphocyte stimulation assay was performed.
# Mice of the C57BL/6 strain were tested with i.p. administration of either 100, 200, 400 or 600 mg/kg of Cpd. 1 or just buffer. This was followed by removal of spleens and treatment of lymphocytes therein with mitogens PHA and Con-A.
# The compound of Example 2, Cpd. 2, was tested in vivo by using C57BL/6 mice and treating them with […] or just buffer for four consecutive days by the i.p. route. On the fifth day a lymphocyte stimulation assay was performed.
# [2] = test system: L5178Y target cells; assay: MLTC assay of cytotoxic lymphocyte (CTL) activity, L5178Y target cells; type: cell-based, mouse, DBA/2
# Text: A mixed lymphocyte tumor culture (MLTC) immunoassay, used to determine the cytotoxic lymphocyte (CTL) activity employs lymphocytes from either immunized (sensitized) mice or DBA/2 tumor dormant state animals in various stages of the tumor dormant state (TDS). The assay employs L5178Y target cells labeled with ^51 Chromium and effector cells (sensitized lymphocytes) from the above-mentioned sources. Effector-target cell ratios will vary with different experimental conditions and may or may not include irradiated stimulator L5178Y cells. Results are expressed as % lysis of target cells based on ratio of cpm of test group over cpm of total release (maximum) both of which are corrected for spontaneous release of ^51 Cr. The assay can be performed as an 8 or 18 hour release assay.
# Ten days later the resultant tumor nodule, about 1 cm in size, is surgically excised. If the excision was successful, no subcutaneous tumors develop at the site of implantation. […] These mice are considered to be in the tumor dormant state. […]
# DBA/2 mice in the early stage of TDS, prior to challenge with viable L5178Y tumor cells, were used to measure the effect of Cpd. 2 on CTL activity. Cpd. 2, 0.1, 1.0, 10 or 100 μg/ml, or just buffer was added in 100 ul volumes to MLTC microculture wells containing washed spleen lymphocytes from DBA/2 mice, effector, and L5178Y target cells at varying ^E /T ratios. The MLTC reaction was performed in the presence or absence of irradiated L5178Y stimulator cells. […]
# [3] = 100 mg/kg i.p., five day administration
# [4] = 200 mg/kg i.p., five day administration
# [5] = 400 mg/kg i.p., five day administration
# [6] = 600 mg/kg i.p., five day administration
compound,measurement,setting,value
"Cc1ccc(C2(O)C(=O)OC3C(O)COC32O)o1.Cc1ccc(C2(O)C(=O)OC3C(O)COC32O)o1.O=C1CCC(=O)O1 (stereo not shown) [Cpd. 1, 2-furylbutyrolactone:succinic anhydride]","Lymphocyte Stimulation Index, PHA","[1]; 50 mg/kg i.p., 4 days",13.6 and 17.0
same,"Lymphocyte Stimulation Index, Con-A","[1]; 50 mg/kg i.p., 7 days",26.0
same,"Lymphocyte Stimulation Index, Control (no mitogen)","[1]; 50 mg/kg i.p., 7 days",1.0
same,"Lymphocyte Stimulation Index, Con-A","[1]; 100 mg/kg i.p., 7 days",40.0
same,"Lymphocyte Stimulation Index, Control (no mitogen)","[1]; 100 mg/kg i.p., 7 days",1.3
same,"Lymphocyte Stimulation Index, PHA","[1]; 100 mg/kg i.p., 7 days",17.7
same,"Lymphocyte Stimulation Index, Con-A",[1]; [3],43.9
same,"Lymphocyte Stimulation Index, Control (no mitogen)",[1]; [3],.80
same,"Lymphocyte Stimulation Index, PHA",[1]; [3],51.1
same,"Lymphocyte Stimulation Index, PHA","[1]; 200 mg/kg i.p., 4 days",42.8 and 25.2 and 23.2
same,"Lymphocyte Stimulation Index, Con-A","[1]; 200 mg/kg i.p., 7 days",34.0
same,"Lymphocyte Stimulation Index, Control (no mitogen)","[1]; 200 mg/kg i.p., 7 days",1.0
same,"Lymphocyte Stimulation Index, PHA","[1]; 200 mg/kg i.p., 7 days",21.3
same,"Lymphocyte Stimulation Index, Con-A",[1]; [4],36.6
same,"Lymphocyte Stimulation Index, Control (no mitogen)",[1]; [4],.62
same,"Lymphocyte Stimulation Index, PHA",[1]; [4],48.2
same,"Lymphocyte Stimulation Index, Con-A","[1]; 400 mg/kg i.p., 4 days",40.0 and 30.9 and 26.4
same,"Lymphocyte Stimulation Index, Con-A","[1]; 400 mg/kg i.p., 7 days",20.7
same,"Lymphocyte Stimulation Index, Control (no mitogen)","[1]; 400 mg/kg i.p., 7 days",1.0
same,"Lymphocyte Stimulation Index, PHA","[1]; 400 mg/kg i.p., 7 days",3.2
same,"Lymphocyte Stimulation Index, Con-A",[1]; [5],42.4
same,"Lymphocyte Stimulation Index, Control (no mitogen)",[1]; [5],.49
same,"Lymphocyte Stimulation Index, PHA",[1]; [5],44.9
same,"Lymphocyte Stimulation Index, Con-A",[1]; [6],26.5
same,"Lymphocyte Stimulation Index, Control (no mitogen)",[1]; [6],1.7
same,"Lymphocyte Stimulation Index, PHA",[1]; [6],17.6
same,evidence of toxicity,"[1]; 600 mg/kg, five day administration",no evidence of toxicity
same,"Lymphocyte Stimulation Index, Con-A","[1]; 800 mg/kg i.p., 4 days",.612
same,"Lymphocyte Stimulation Index, Control (no mitogen)","[1]; 800 mg/kg i.p., 4 days",.31
same,"Lymphocyte Stimulation Index, PHA","[1]; 800 mg/kg i.p., 4 days",.408
same,effect on Con-A response (in words),"[1]; i.p., 4 days, Con-A",doses ranging from 50 to 200 mg/kg have a significant stimulatory effect; also recorded: doses ranging from 400 to 800 mg/kg have a significant anti-proliferative effect
same,effect on PHA response (in words),"[1]; i.p., 4 days, PHA",doses of 100 and 200 mg/kg of Cpd. 1 tend to stimulate lymphocyte DNA synthesis; also recorded: Doses ranging from 400 to 800 suppress DNA synthesis of spleen lymphocytes; also recorded: a decrease in the response to PHA at the 400 mg/kg dose when compared to the response at the 200 mg/kg dose
same,effect on mitogen response (in words),"[1]; i.p., 7 days","strong suppression of the PHA response in the C57BL/6 mice; also recorded: a suppression of the Con-A response in C57BL/6 mice when compared to the 200 mg/kg dose; also recorded: at a dose of 200 mg/kg in C57BL/6 mice; also recorded: in the C57BL/6 strain, it is increased at doses of 50, 100 and 200 mg/kg"
same,effect on mitogen response (in words),"[1]; i.p., five day administration","Doses ranging from 100 to 400 mg/kg of Cpd. 1 caused significant stimulation of both the Con-A and PHA treated lymphocytes; also recorded: The high dose, 600 mg/kg, caused less stimulation than the 100 to 400 mg/kg doses and gave levels comparable to controls"
same,effect on mitogen response (in words),"[1]; i.p., four daily doses",Stimulation of the response to polyclonal mitogens at doses of Cpd. 1 from 50-400 mg/kg with a maximum response achieved between doses of 100-200 mg/kg
same,% Lysis,"[2]; 0.001 μg/ml, E/T 10:1, TDS, without stimulator cells",3.9%
same,% Lysis,"[2]; 0.01 μg/ml, E/T 10:1, TDS, without stimulator cells",3.5%
same,% Lysis,"[2]; 0.01 μg/ml, E/T 100:1, TDS, without stimulator cells",26.0%
same,% Lysis,"[2]; 0.1 μg/ml, E/T 10:1, TDS, without stimulator cells",3.5%
same,% Lysis,"[2]; 0.1 μg/ml, E/T 30:1, TDS, with stimulator cells",51.0%
same,% Lysis,"[2]; 0.1 μg/ml, E/T 100:1, TDS, with stimulator cells",79.0%
same,% Lysis,"[2]; 1.0 μg/ml, E/T 10:1, TDS, without stimulator cells",4.6%
same,% Lysis,"[2]; 1.0 μg/ml, E/T 30:1, TDS, with stimulator cells",46.0%
same,% Lysis,"[2]; 1.0 μg/ml, E/T 30:1, TDS, without stimulator cells",20.0%
same,% Lysis,"[2]; 10 μg/ml, E/T 6.25:1, TDS, without stimulator cells",.7%
same,% Lysis,"[2]; 10 μg/ml, E/T 10:1, TDS, without stimulator cells",4.6%
same,% Lysis,"[2]; 10 μg/ml, E/T 12.5:1, TDS, without stimulator cells",6.9%
same,% Lysis,"[2]; 10 μg/ml, E/T 25:1, TDS, with stimulator cells",72.0%
same,% Lysis,"[2]; 10 μg/ml, E/T 25:1, TDS, without stimulator cells",8.1%
same,% Lysis,"[2]; 10 μg/ml, E/T 30:1, TDS, with stimulator cells",42.0%
same,% Lysis,"[2]; 100 μg/ml, E/T 6.25:1, TDS, without stimulator cells",6.1%
same,% Lysis,"[2]; 100 μg/ml, E/T 10:1, TDS, without stimulator cells",8.6%
same,% Lysis,"[2]; 100 μg/ml, E/T 100:1, TDS, without stimulator cells",42.0%
same,% Lysis,"[2]; E + D, E/T 10:1, TDS effectors, no stimulators",9.0%
same,enhancement of CTL activity (in words),"[2]; L5178Y target, TDS effectors with stimulator cells",significant specific enhancement of CTL activity of effector cells in the presence of stimulator cells
same,% Lysis,"[2]; N + S + D, E/T 30:1, normal spleen cells + stimulators",-9.7%
same,% Lysis,"[2]; N + S + D, E/T 100:1, normal spleen cells + stimulators",-9.5%
same,CTL activity (in words),"[2]; TDS 10 days after challenge, with or without stimulator cells, any E/T ratio",significant increase in CTL activity
